Test results published in patent publication US20180009764A1, “METHOD FOR TREATING MACROPHAGE MIGRATION INHIBITORY FACTOR (MIF)-IMPLICATED DISEASES AND CONDITIONS WITH IODO PYRIMIDINE DERIVATIVES” (UNIVERSITY OF LOUISVILLE RESEARCH FOUNDATION, INC., priority 2009, published 2018).

Key:
[1] = target: T1, MIF (Homo sapiens, UniProt P14174); experiment: MIF cell lysate enzymatic inhibition; assay type: biochemical; details: cell lysates
T1 construct: the enzymatic activity of MIF present in cell lysates; endogenous in cells
T1 sequence (P14174 2-115 limits assumed): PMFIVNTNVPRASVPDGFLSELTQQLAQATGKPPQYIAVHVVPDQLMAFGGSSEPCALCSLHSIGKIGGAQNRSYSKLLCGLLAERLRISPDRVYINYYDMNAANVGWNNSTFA
Description: Normal or transformed cell lysates can be used to determine the concentration inhibiting the enzymatic activity of MIF present in cell lysates. Cells are cultured in the appropriate media to the required number of cells, collected, and lysed. Compounds to be characterized are solubilized in DMSO and serial dilutions are performed in order to obtain a range of concentrations including complete and no quantifiable inhibition.

[2] = test system: Caco-2 monolayers; experiment: Caco-2 cell permeability and transport; assay type: in vitro ADME; design: Caco-2 Permeability Papp B-A / Caco-2 Permeability Papp A-B: unit not given here; details: for Caco-2 Permeability Papp B-A: basolateral-to-apical
Description: (§1) Cell permeability and transport mechanisms in Caco-2 and MDR1-MDCK monolayers experiments were performed in triplicate in the apical-to-basolateral and basolateral-to-apical direction using […]® wells containing either Caco-2 or MDR1-MDCK monolayers. A modified Hanks buffer pH 7.4 was used in both reservoir and receiver wells with the addition of 1% BSA in the receiver side. Confluent monolayers were used and their integrity was verified using reference compounds (Atenolol as a low permeability reference compound and Propanolol as a high permeability reference compound). A sample in the basolateral and apical sides was taken after 2 hours and the concentration measured by LC/MS-MS.

[3] = Caco-2 cell permeability and transport; assay type: in vitro ADME; design: Caco-2 Permeability Papp B-A / Caco-2 Permeability Papp A-B: unit not given here; details: human, Caco-2, pH 7.4
Description: as §1

[4] = test system: LOX-IMV1 tumor cell line; experiment: Inhibition of cell migration (Oris Cell Migration Assay); assay type: cell-based; details: 72 hrs, even at low concentrations (0.03 μM), FIG. 7
Description: The LOX-IMV1 tumor cell line was used to determine the inhibition of cell migration using the Oris Cell Migration Assay kit (Promega, Mich.). Briefly, adherent cells were seeded into each well of the kit according to kit instructions. Concentrations of cells in the migration zone were determined to calculate IC50 values. Prior to the migration assay, cell proliferation IC50s were determined to differentiate between inhibition of proliferation and migration. […] A slightly modified method was also used to determine the inhibition of invasion.

[5] = test system: Chick Chorioallantoic Membrane (CAM); experiment: CAM assay with matrigel plugs; assay type: in vivo
Description: (§2) 8 groups with 10 embryos in each group were used in the experiment described below. Fresh fertile eggs were incubated for 3 days in a standard egg incubator at 37° C. for 3 days. On Day 3, eggs were cracked under sterile conditions and embryos were placed into 20×100 mm plastic plates and cultivated at 37° C. in an embryo incubator with a water reservoir on the bottom shelf. Air was continuously bubbled into the water reservoir using a small pump so that the humidity in the incubator is kept constant. On Day 6, a sterile silicon “o” ring was placed on each CAM and test compound dissolved in 0.5% methylcellulose was placed into each “o” ring in a sterile hood. Paclitaxel was used as a positive control. Embryos were returned to the incubator after addition of test material. Control embryos received 10 μL of vehicle alone. On Day 8, embryos were removed from the incubator and kept at room temperature while blood vessel density were determined under each “o” ring using an image capturing system at a magnification of 160×. The blood vessel density was measured using an angiogenesis scoring system in that arithmetic numbers 0 to 5 (or exponential numbers 1 to 32) are used to indicate number of blood vessels present at the treatment sites on the CAM. Number 5 represents the highest density and 0 represents no angiogenesis. The percent of inhibition at each dosing site was calculated using the score recorded for that site divided by the mean score obtained from the appropriate control samples for each individual experiment. The percent of inhibition for each dose of a given compound was calculated by pooling all results obtained for that dose from 8-10 embryos.
Another experiment was performed using a protocol similar to the one described above but using matrigel plugs instead of o ring to deliver the test material to the CAM. Results are summarized in Table 9 below and show a statistically significant inhibition of angiogenesis at the high concentrations of test material.

[6] = Microsomal stability in human liver microsomes; assay type: in vitro ADME; details: both, human, microsomes, pH 7.4
Description: Stability in human liver microsomes was tested over […] at 37° C. using pooled mixed gender human liver microsomes. Liver microsomes were prepared at 1.0 mg/ml of microsomal protein in a 100 mM potassium phosphate pH 7.4 buffer with 1 mM NADPH. The media was incubated at 37° C. with the compound in solution in DMSO. The concentration of the compound was followed by LC/MS-MS as a function of time. Samples were assayed at t=0, 30, 60 and 120 minutes. Testosterone was used as a positive control. The same experiment was performed with mouse liver microsomes instead of human liver microsomes.

[7] = test system: Du 145; experiment: Inhibition of tumor cells proliferation (CellTiter Glo); assay type: cell-based; details: Homo sapiens, 72 hours
Description: Inhibition of the proliferation of tumor cells was investigated in vitro in several tumor cell lines. Cells of the desired tumor cell line were plated at 2×10^5 cells/ml in 96 well plates. Twice the indicated concentrations of the compounds of the invention were added to cells the following day in an equal volume of media. 72 hours later, cells were lysed and subjected to ATP determination using the CellTiter Glo-Luminescent Cell Viability Assay kit (Promega, Madison, Wis.). Experiments were done in triplicate. Results for the inhibition of cells proliferation are reported as IC50 (the concentration leading to a 50% inhibition of proliferation of the cell population) and are listed in Table 6. FIGS. 3 and 4 show bar graphs comparing the IC50s of specific embodiments of compounds of the invention across multiple tumor cell lines.

[8] = in vitro; assay type: in vitro ADME; details: human, plasma, Human Plasma Protein Binding % Bound
Excerpt: Plasma protein binding was ascertained using dialysis equilibrium methods known in the art.

[9] = test system: Chick Chorioallantoic Membrane (CAM); experiment: Chick chorioallantoic membrane (CAM) assay, o ring; assay type: in vivo; details: for Blood Vessel Density: o ring
Description: as §2

[10] = Pharmacokinetics parameters in rats; assay type: in vivo; details: rat, plasma
Description: The pharmacokinetic parameters of several compounds were investigated in rodents. Both oral and iv administration were investigated in rats. Blood samples were collected over time; plasma was analyzed using an LC/MS-MS method. Pharmacokinetic parameters were calculated using Win-NonLin. Terminal plasma half-lives were 7.10 hr for ACT-MIF-001, 1.66 hr for ACT-MIF-002, and 1.50 hr for ACT-MIF-003. […] The volume of distribution values were 72666 mL/kg for ACT-MIF-001, 2118 mL/kg for ACT-MIF-002, and 1926 mL/kg for ACT-MIF-003.

[11] = test system: MDR1-MDCK monolayers; experiment: MDR1-MDCK cell permeability and transport; assay type: in vitro ADME
Description: as §1

[12] = test system: p53; experiment: p53 up regulation, p53 luciferase assay; assay type: cell-based; details: 10 μM; FIG. 5
Description: The up regulation of p53 was determined using a commercially available p53 luciferase assay kit. 1×10^5 cells/ml were plated in a 24 well plate and allowed to adhere overnight. MIF antagonists were added to the cells at the indicated concentrations for 16 hours and transiently co-transfected with 0.125 μg/well of p53-responsive luciferase promoter plasmid (Promega, Madison, Wis.) together with 0.0125 μg/well Renilla pRL-null plasmid (Promega) using Lipofectamine (Invitrogen) transfection reagent. After 24 hrs, Firefly and Renilla luciferase activities were measured by the Dual Luciferase Reporter Assay System (Promega, Madison, Wis.) on a TD-20/20 luminometer (Turner Designs).

Compound	IC50 [1]	Caco-2 Permeability Class [2]	efflux ratio at 2 h [3]	Metabolic Stability in Human Microsomes % Remaining ([6]; 0 h)	Metabolic Stability in Human Microsomes % Remaining ([6]; 1 h)	IC50 [7]	other results
Ic1cc(-c2ccnc3ccccc23)ncn1 [ACT-MIF-036, 4-Iodo-6-(quinolin-4-yl)pyrimidine]	0.23 µM	–	–	–	–	–	–
Ic1cc(-c2cncc3ccccc23)ncn1 [ACT-MIF-025, 4-Iodo-6-(isoquinolin-4-yl)pyrimidine]	–	Low	1.5	–	–	–	–
Ic1cc(-c2cccnc2)ncn1 [ACT-MIF-006, 4-Iodo-6-(pyridin-3-yl)pyrimidine]	0.25 µM	High	1.4	100%	82%	36.7 µM	Inhibition of cell migration [4]: significant inhibition of migration; Blood Vessel Counts ([5]; 0.3 nM per CAM): 38.8 ± 3.5; Blood Vessel Counts ([5]; 3 nM per CAM): 35.8 ± 5.4; Blood Vessel Counts ([5]; 30 nM per CAM): 33.5 ± 1.7
Fc1ccc(-c2cc(I)ncn2)c(F)c1 [ACT-MIF-017, 4-Iodo-6-(2,4-difluorophenyl)pyrimidine]	0.19 µM	–	–	100%	0%	< 10 µM	–
CC(=O)CC(c1ccccc1)c1c(O)c2ccccc2oc1=O (centres unmarked) [Warfarin, reference compound]	–	–	–	–	–	–	fraction unbound [8]: 0.01
COc1ccc(-c2cc(I)ncn2)c(F)c1F [ACT-MIF-001, 4-Iodo-6-(2,3-difluoro-4-methoxyphenyl)pyrimidine]	0.037 µM	Low	–	100%	<2%	< 10 µM	fraction unbound [8]: 0.017; Blood Vessel Density ([9]; 0.3 nM per CAM): 10.5 ± 3.4; Blood Vessel Density ([9]; 3 nM per CAM): 4.1 ± 0.8; Blood Vessel Density ([9]; 30 nM per CAM): 1.8 ± 0.3; Anti-angiogenic properties ([9]; CAM assay, in words): high anti-angiogenic properties; Caco-2 Permeability Papp A-B ([2]; apical-to-basolateral, pH 7.4, 2 hours): <0.1; Caco-2 Permeability Papp B-A ([2]; pH 7.4, 2 hours): <0.1; Vd ([10]; intravenous, read-out: Volume of distribution): 72.7 L/kg; clearance ([10]; iv, after i.v. administration): 45.8 L/h/kg; half-life ([10]; read-out: Terminal plasma half-life (converted)): 7.1 h; Brain penetration classification [11]: Low; P-gp Substrate [11]: No; Efflux ([11]; class in words): Low
Ic1cc(-c2ccsc2)ncn1 [ACT-MIF-022, 4-Iodo-6-(thiophen-3-yl)pyrimidine]	–	–	–	–	–	< 40 µM	–
CCOc1ccc(-c2cc(I)ncn2)cc1F [ACT-MIF-033]	0.115 µM	High	1.1	100%	82%	< 5 µM	Caco-2 Permeability Papp B-A ([2]; pH 7.4, 2 hours): 3.0; p53 regulation [12]: implicated in p53 regulation
CC(=O)Nc1cccc(-c2cc(I)ncn2)c1 [ACT-MIF-021, 4-Iodo-6-(3-acetylaminophenyl)pyrimidine]	0.57 µM	–	–	100%	73%	–	–
Fc1ncccc1-c1cc(I)ncn1 [ACT-MIF-011, 4-Iodo-6-(2-fluoropyridin-3-yl)pyrimidine]	–	High	0.6	–	–	–	–
Ic1cc(-c2cccs2)ncn1 [ACT-MIF-030, 4-Iodo-6-(thiophen-2-yl)pyrimidine]	–	–	–	–	–	–	Blood Vessel Counts ([5]; 0.3 nM per CAM): 35.6 ± 1.0; Blood Vessel Counts ([5]; 3 nM per CAM): 32.7 ± 3.2; Blood Vessel Counts ([5]; 30 nM per CAM): 28.1 ± 2.0; p53 regulation [12]: implicated in p53 regulation
NC(=O)c1ccc(-c2cc(I)ncn2)cc1 [ACT-MIF-034, 4-Iodo-6-(4-aminocarbonylphenyl)pyrimidine]	0.27 µM	–	–	–	–	< 100 µM	p53 regulation [12]: implicated in p53 regulation
CC(=O)O[C@H]1C(=O)[C@@]2(C)[C@H]([C@H](OC(=O)c3ccccc3)[C@]3(O)C[C@H](OC(=O)[C@H](O)[C@@H](NC(=O)c4ccccc4)c4ccccc4)C(C)=C1C3(C)C)[C@]1(OC(C)=O)CO[C@@H]1C[C@@H]2O [Paclitaxel, reference compound]	–	–	–	–	–	–	Blood Vessel Density ([9]; 6 nM per CAM): 2.8 ± 0.7; Blood Vessel Counts ([5]; 2 nM per CAM): 15.5 ± 2.1
